Data reported in article PMC11265914, “Unravelling nicotinic receptor and ligand features underlying neonicotinoid knockdown actions on the malaria vector mosquito Anopheles gambiae” (Open Biology, 2024).

Target: T1, Ls-AChBP (Lymnaea stagnalis, UniProt P58154, Q74R)
T1 construct: over-expressed in Pichia pastoris, deglycosylated, purified; homo-pentamer
Experiment: X-ray crystal structure of the complex
Type: binding
Details: cocrystallized with 1 mM dinotefuran, PEG4000, 0.2 M sodium citrate pH 5.4, 20 °C; all five orthosteric sites

For `CNC(=N[N+](=O)[O-])NC[C@@H]1CCOC1` [dinotefuran], the “X-ray crystal structure of the complex” value was “Dinotefuran bound to all five orthosteric sites of the protein”.
